Our source for the Km values is article PMC3214178, “High-yield production of aromatic peroxygenase by the agaric fungus Marasmius rotula” (AMB Express, 2011).

What all share (format): biochemical
Test [1] concerns T1, MroAPO (Marasmius rotula aromatic peroxygenase).
T1 construct: native secreted heme-thiolate enzyme purified by FPLC from culture liquid of wild-type fungus
Briefly: spectrophotometric initial rates, ABTS cation radical at […] nm; Lineweaver-Burk. Conditions: 2 mM H2O2, sodium phosphate/citrate buffer pH 4.5, 25°C.

Test [2] has the same test system. Briefly: spectrophotometric initial rates, dimeric DMP quinone at […] nm; Lineweaver-Burk. The conditions noted are these: 2 mM H2O2, sodium phosphate/citrate buffer pH 5.5, 25°C.
For test [3] the test system is unchanged. Briefly: spectrophotometric initial rates, 1-naphthol at […] nm; Lineweaver-Burk. The conditions noted are these: H2O2 co-substrate (table note 2 mM; methods give start with 20 μl H2O2 (200 μM)), sodium phosphate/citrate buffer pH 5.5, acetonitrile as substrate solvent, 25°C.
For test [4] the test system is unchanged. Briefly: spectrophotometric initial rates, veratraldehyde at […] nm; Lineweaver-Burk. The conditions noted are these: 2 mM H2O2, sodium phosphate/citrate buffer pH 5.5, 25°C.

Take `CCn1c(=NN=c2sc3cc(S(=O)(=O)O)ccc3n2CC)sc2cc(S(=O)(=O)O)ccc21` [ABTS]: in test [1], the Km was 71 µM.

`COc1cccc(OC)c1O` [DMP]: the Michaelis constant (Km) in test [2] came to 133 µM.

Consider `c1ccc2ccccc2c1` [Naphthalene], for which, in test [3], the Michaelis constant (Km) turned out to be 791 µM.

As to `COc1ccc(CO)cc1OC` [Veratryl alcohol], in test [4], the Michaelis constant (Km) came out at 279 µM.
